Reference: paper PMC5342726, “Identification of small molecule inhibitors of ERCC1-XPF that inhibit DNA repair and potentiate cisplatin efficacy in cancer cells” (Oncotarget, 2016)

Key:
[1] = molecular target: T1, ERCC1-XPF (Homo sapiens, UniProt P07992+Q92889); test: HTS fluorescence assay of ERCC1-XPF endonuclease activity; type: biochemical; details: IC50s calculated by CompuSyn, SD from 3 plots, read-out: ERCC1-XPF IC50
T1 construct: made in house; host or cells: Sf9 insect cells, baculovirus (obtained from Aziz Sancar)
T1 sequence (Q92889 1-916): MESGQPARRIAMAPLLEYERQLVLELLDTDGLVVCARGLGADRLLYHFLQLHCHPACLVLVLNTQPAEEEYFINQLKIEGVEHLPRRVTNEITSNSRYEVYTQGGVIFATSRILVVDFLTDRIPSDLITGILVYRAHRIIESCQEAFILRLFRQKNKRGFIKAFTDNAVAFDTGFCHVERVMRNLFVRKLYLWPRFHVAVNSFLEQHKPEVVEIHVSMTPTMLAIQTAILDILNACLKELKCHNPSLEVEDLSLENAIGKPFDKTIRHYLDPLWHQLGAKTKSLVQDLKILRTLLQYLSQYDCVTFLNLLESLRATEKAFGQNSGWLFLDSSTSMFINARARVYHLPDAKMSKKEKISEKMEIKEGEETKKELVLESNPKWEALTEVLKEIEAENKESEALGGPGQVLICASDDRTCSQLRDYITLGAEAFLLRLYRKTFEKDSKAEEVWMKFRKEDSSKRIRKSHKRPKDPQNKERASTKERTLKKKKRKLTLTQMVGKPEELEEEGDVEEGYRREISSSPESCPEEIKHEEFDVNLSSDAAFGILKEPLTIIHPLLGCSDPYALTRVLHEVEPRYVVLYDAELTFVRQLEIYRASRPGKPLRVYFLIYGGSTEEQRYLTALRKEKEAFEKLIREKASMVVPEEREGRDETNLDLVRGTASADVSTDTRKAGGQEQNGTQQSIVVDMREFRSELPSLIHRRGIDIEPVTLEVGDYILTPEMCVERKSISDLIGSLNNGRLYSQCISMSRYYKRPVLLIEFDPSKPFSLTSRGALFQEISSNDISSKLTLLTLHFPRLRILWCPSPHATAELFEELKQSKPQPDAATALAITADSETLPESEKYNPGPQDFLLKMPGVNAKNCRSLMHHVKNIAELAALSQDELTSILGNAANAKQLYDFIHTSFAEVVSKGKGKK
T1 sequence (P07992 1-297): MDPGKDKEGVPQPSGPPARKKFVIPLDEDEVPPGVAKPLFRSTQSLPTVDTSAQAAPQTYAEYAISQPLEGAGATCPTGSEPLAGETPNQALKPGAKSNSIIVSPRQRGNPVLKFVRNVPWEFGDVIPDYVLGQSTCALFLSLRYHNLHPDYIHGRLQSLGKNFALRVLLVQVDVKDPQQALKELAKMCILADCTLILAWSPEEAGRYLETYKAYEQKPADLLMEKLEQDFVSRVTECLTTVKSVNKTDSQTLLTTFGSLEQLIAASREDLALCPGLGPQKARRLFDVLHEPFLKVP
Source text: To screen for ERCC1-XPF inhibition, an existing in vitro assay was optimized to a 96-well plate format to allow for screening of compound libraries (NCI-DTP diversity set). These compounds and subsequent vialed compounds were from the Drug Synthesis and Chemistry Branch, Developmental Therapeutics Program, Division of Cancer Treatment and Diagnosis at the National Cancer Institute. We used purified ERCC1-XPF (Supplementary Figure S1) and describe the purification procedure in Supplementary Information. The initial cuvette-based assay was optimized for DNA, MgCl2 concentrations as well as the incubation time to be used in the fluorescence assay in a 96 well plate format (Supplementary Figure S2). The assay consists of a 10 nM DNA (Q+Fl substrate annealed, described below) and 7.5 nM ERCC1-XPF protein in buffer containing 50 mM Tris-HCl pH8.0, 2 mM MgCl2, 0.1 mM BSA, and 0.5 mM β-mercaptoethanol. For preliminary screening, 150 μL of DNA was added to each well and the fluorescence signal was measured at 525 nm following excitation at 485 nm. Compounds or controls were then added to individual wells for a total of 80 compounds on each plate and the fluorescent signal was re-measured. We initially ran the screen using 50 μM compound and then repeated using 10 μM compound. 16 controls were used per plate, which consisted of buffer alone, DNA alone, ERCC1-XPF alone, 10 nM fluorescein ssDNA (positive signal), and 10 nM Q-Fl DNA with 7.5 nM ERCC1-XPF (positive signal). 7.5 nM ERCC1-XPF was added to each well containing the compounds and DNA and incubated for 30 minutes at 37°C after which the fluorescent signal was measured again.
The synthetic DNA substrate mimics a native forked ssDNA-dsDNA substrate of ERCC1-XPF (Figure 1A). This forked DNA substrate has a dsDNA region (14 bases) and a region containing two ssDNA flaps (12 bases each). One 26-mer DNA oligonucleotide contains a site-specific fluorescein modification at the indicated position (Fl Oligo: 5' - GCCAGCGCTCGGAT(AminoC6dT)(FLSN) TTTTTTTTTTT). The semi-complementary strand was synthesized containing a DABCYL quencher (Q) molecule at the depicted position (Q Oligo: 5' - TTTTTTTTTTT (AminoC6dT)(Dabcyl) ATCCGAGCGCTGGC; Figure 1A). The fluorescein (*) molecule has an excitation peak centered at 485 nm and an emission peak centered at 525 nm. The quencher (Q) molecule is able to quench the fluorescence signal of the fluorescein when it is in close proximity. The design of the semi-duplex DNA substrate is such that the fluorescein and DABCYL quencher are directly opposite one another at the double-stranded and single-stranded DNA junction (Figure 1A). […] Upon cleavage by ERCC1-XPF, (~4-5 bases from the dsDNA-ssDNA) the fluorescein label on the cleaved DNA is released into solution and results in a significant increase in fluorescence as the quencher is no longer in close proximity. The DNA substrate is also incorporated with a restriction enzyme site (HhaI) within the duplex DNA that results in a cleavage pattern similar to ERCC1-XPF. This serves as a positive control and allows assessment of ERCC1-XPF cleavage product. This DNA substrate is used in the solution based fluorescence screening assay to screen for inhibitors of ERCC1-XPF endonuclease activity. In the 96 well platform, the Z factor was calculated to be ~0.87 indicating a highly robust assay and highly suitable for a HTS. A Molecular Devices Spectramax M5 plate reader was used for fluorescence detection. The DNA substrate was the same for gel-based assays besides the fluorescent/quencher modifications and 5'-labeling using γ-ATP^32. For the secondary screen, the reaction was setup in a tube with 10 nM DNA, 7.5 nM XPF-ERCC1, 20 U/ml of HhaI, or 7.5 nM XPG (Supplementary Figure S3A) in nuclease reaction buffer with compound titration and incubated at 37°C for 30 minutes. The reaction was stopped by chelating the metal in the buffer and read in the Spectramax M5 plate reader.

[2] = test system: H460 cells; test: Colony survival assay in H460 cells; type: cell-based; details: SAR, Supplementary Figure S6; cell line not stated
Experimental: We used H460, NSCLC cells, to first assess the impact on colony survival by knocking down ERCC1-XPF in these cells. […] Next, to assess if colony survival is affected we titrated cisplatin in these cells using a fixed concentration of Hit 1(50 μM) or Hit 2 (25 and 50 μM). […] Next, we assessed cisplatin potentiation by treating cells at a fixed cisplatin concentration (cisplatin IC50 in H460 cells) with Hit 1 or 2 titration (Figure 4C, filled symbols). H460 cells were treated with compound for a total of 4 hours while cisplatin was added to the media after 2 hours of compound pre-treatment. […] We also titrated Hit 1 or Hit 2 alone in these cells and treated for 4 h. […] We also assessed the effects of Hit 2 in another NSCLC cell line (H1299), which was either ERCC1 wildtype (WT) or knockout (KO) (Figure 4E).
Colony survival assay in a total reaction volume of 2.4 mL in a six-well plate Cells were split and seeded at a density of 300-400 format. Cells were transfected for 48 hours after which cells in a 60 mm plate and incubated overnight. The next complete media was added for 24 hours. Cells were day, the cells were treated with a fixed concentration of the seeded for clones and clones were selected using standard compound (Hit 1 or Hit 2) with cisplatin titration. After methods. ERCC1 KO clones were tested for ERCC1 treatment, fresh complete medium with antibiotics was and XPF expression by Western Blot using the ERCC1 added and the cells were then allowed to form colonies. In antibodies, 8F1, FL-297, and D-10 and the XPF antibody another method, the cells were seeded onto 60mm plates 3F2/3 (Santa Cruz).
Validation of genome editing was performed alone or titrated with a fixed concentration of cisplatin by PCR amplification with Taq polymerase (NEB) of (IC50 for the cell line used). Post treatment, the cells were exon 2 within the genomic DNA using the forward allowed to form colonies. Colonies were fixed with 95% primer: 5’ […]
methanol and stained with 0.2 % crystal violet. Colonies 3’ and the reverse primer: 5’ […]
with ≥50 cells were counted using a light microscope. Cell […] 3’. PCR product was cloned […]
survival was expressed as the ratio of average number of into a linearized pCR4-TOPO vector and transformed colonies in drug treated cells versus control cells x 100. into OneShot TOP10 E. coli using the TOPO-TA Cloning The experiment was done in triplicate for each drug Kit for Sequencing (Thermofisher). Bacterial colonies concentration. We have previously published the methods were selected with ampicillin and plasmid was extracted for ERCC1 and XPF knockdowns, which were used as using standard procedures. Plasmid was sequenced by controls. Briefly, cells were seeded onto six-well plates GeneWiz using an M13R primer. Potential sites of off-target editing in coding sequences were identified during
(density 2.5 × 10^5 cells /well) in antibiotic free media. guide RNA design with the Optimized CRISPR Design Two transfections were done at 24 h interval in each cell Tool. Primers were designed to amplify the exons line to knockdown ERCC1-XPF together according to containing the potential off-target sites and PCR product the manufacturer ’s (Dharmacon’s smartpools) protocol. was sequenced by GeneWiz. A list of specific off-target Addition of lipid reagent (Dharmafect 2, Dharmacon) sites and primers used to assess these off-target effects are […]

[3] = test system: H460 cells; test: Cisplatin interstrand crosslink repair by comet assay; type: cell-based; details: 72 hours, cisplatin at IC90 alone
Experimental: (B) After treatment, comet assay was performed as described at different time intervals (0, 24, 48 and 72 h). The percentage of interstrand crosslinks remaining was calculated using olive tail moment. Results are represented as mean ± SEM of three independent experiments.
The data is expressed as the percentage of crosslinks remaining at the time points assessed.
Cells were treated with compound (Hit control (9:1 DMSO-glycerol). After incubation at 37°C 1 or Hit 2) and cisplatin or just cisplatin alone in serum for 30 minutes, 2 μL of the pre-incubate was diluted into a free media. […] Cells were further treated with 100 μM
Cells were then trypsinized, pelleted and resuspended in 1% low melting point agarose.

[4] = test system: H460 cells; test: Cisplatin intrastrand adduct repair by ELISA; type: cell-based; details: 72 hours (last time point), compound 15 μM 2 h then cisplatin at IC90 2 h; relative to 0 hour
[5] = test system: H460 xenografts; details: 16168 20 mg/kg i.p. daily or cisplatin 3 mg/kg i.p. twice a week, 10 days

In the case of `C[C@@H](O)CN(CCN(C[C@@H](C)O)C[C@@H](C)O)C[C@@H](C)O.O=[N+]([O-])O.[Cu]` [NSC103019], the IC50 [1] is reported as 530 ± 128 nM.

With `Oc1cc(O)c2c(c1)O[C@H](c1ccc(O)c(O)c1)[C@@H](O)[C@@H]2c1c(O)cc(O)c2c1O[C@H](c1ccc(O)c(O)c1)[C@@H](O)C2` [Procyanidin B3] the “potentiation of cisplatin by structural analogues in cell culture / colony survival” value [2] was “activity for only one of the structural analogues”.

Work on `NC(=O)C[S+]([O-])CC(N)C(=O)O` (stereo not shown) [NSC14161] yielded an IC50 [1] of 790 ± 350 nM.

`O=S(=O)(NCCO)c1cc[c]([Sb](=[O])([OH])[OH])cc1` [NSC13776] showed an IC50 [1] of 1150 ± 960 nM.

With `N.N.[Cl][Pt][Cl]` [Cisplatin, cis-diammine-dichloroplatinum (II)] the ICLs remaining [3] was 1-5%, the intrastrand adducts remaining [4] was ~ 15% and the “tumor growth, single agent” value [5] was “initial tumor response that delayed tumor growth”.
